Source: ChEMBL document CHEMBL5321213, “Nicolaioidesin C: An Antiausterity Agent Shows Promising Antitumor Activity in a Pancreatic Cancer Xenograft Mouse Model” (J Nat Prod, 2023)
The source made the active and inactive calls. No cut-off for these calls is given here.

Tests used:
MIA PaCa-2 [1] = test: Antitumor activity against human MIA PaCa-2 cells xenografted in athymic BALB/c-nu mouse assessed as fold change in methionine level in tumor at 2 mg/kg/day, ip administered five times per week for 4 weeks by LC-MS analysis; assay type: functional
MIA PaCa-2 [2] = test: Preferential cytotoxicity against human MIA PaCa-2 cells in nutrient-deprived medium assessed as alteration in cell morphology by measuring rupture of cell membrane at 5 uM measured after 24 hrs by acridine orange and ethidium bromide dual fluorescent staining based imaging analysis; assay type: functional
PANC-1 [3] = test: Inhibition of autophagy in human PANC-1 cells in DMEM medium assessed as downregulation of LC3 protein expression at 5 to 20 uM measured after 6 hrs by Western blot analysis; assay type: functional, cell-based; details: dose 5-20 µM
MIA PaCa-2 [4] = test: Antitumor activity against human MIA PaCa-2 cells xenografted in athymic BALB/c-nu mouse assessed as fold change in N-acetylneuraminic acid level in tumor at 2 mg/kg/day, ip administered five times per week for 4 weeks by LC-MS analysis; assay type: functional
PANC-1 [5] = test: Antimetastatic activity in human PANC-1 cells in DMEM media assessed as inhibition of colony formation at 10 uM incubated for 24 hrs followed by replacement with fresh medium and measured after 10 days by crystal violet staining-based assay relative to control; assay type: functional
MIA PaCa-2 [6] = test: Antitumor activity against human MIA PaCa-2 cells xenografted in athymic BALB/c-nu mouse assessed as fold change in tyrosine level in tumor at 2 mg/kg/day, ip administered five times per week for 4 weeks by LC-MS analysis; assay type: functional
MIA PaCa-2 [7] = test: Antimetastatic activity in human MIA PaCa-2 cells in nutrient-rich medium assessed as open wound area at 20 uM measured every 15 mins for 48 hrs by live cell imaging analysis (reference value: 17%); assay type: functional
MIA PaCa-2 [8] = test: Antitumor activity against human MIA PaCa-2 cells xenografted in athymic BALB/c-nu mouse assessed as fold change in cytidine 5'-monophosphate level in tumor at 2 mg/kg/day, ip administered five times per week for 4 weeks by LC-MS analysis; assay type: functional
PANC-1 [9] = test: Antimetastatic activity in human PANC-1 cells in DMEM media assessed as inhibition of colony formation at 40 uM incubated for 24 hrs followed by replacement with fresh medium and measured after 10 days by crystal violet staining-based assay relative to control; assay type: functional

SMILES: COc1cc(O)c(C(=O)[C@@H]2CC=C(CCC=C(C)C)C[C@H]2c2ccccc2)c(O)c1
- fold change (FC) (MIA PaCa-2 [1]): 0.44
- Activity (MIA PaCa-2 [2]): Active
- inhibition (PANC-1 [3]): inactive
- fold change (FC) (MIA PaCa-2 [4]): 0.33
- inhibition at 10 µM (PANC-1 [5]): 67%
- fold change (FC) (MIA PaCa-2 [6]): 0.41
- Activity (MIA PaCa-2 [7]): 66%
- fold change (FC) (MIA PaCa-2 [8]): 0.4
- inhibition at 40 µM (PANC-1 [9]): 92%
